Reference: patent publication US20250074888A1, “PYRIDAZINE DERIVATIVES AS MODULATORS OF NLRP3 INFLAMMASOME AND RELATED METHODS” (Neumora Therapeutics, Inc., priority 2021, published 2025)

Key:
[1] = molecular target: NLRP3 inflammasome (Homo sapiens, UniProt Q96P20); experiment: NLRP3 inflammasome activation in THP1 macrophages (LPS priming, nigericin), IL-1β AlphaLISA; format: cell-based; conditions: PMA-differentiated THP1, LPS 20 ng/ml 3 hrs, compound 1 hr, Nigericin 6.7 uM 3 hrs, supernatant
[2] = test system: IL-6; experiment: IL-6 release from LPS-primed, nigericin-treated THP1 macrophages, Hu IL-6 AlphaLISA; format: cell-based; conditions: Homo sapiens, THP-1; PMA-differentiated THP1, LPS 20 ng/ml 3 hrs, compound 1 hr, Nigericin 6.7 uM 3 hrs, supernatant

Sequence of NLRP3 inflammasome (Q96P20 whole entry): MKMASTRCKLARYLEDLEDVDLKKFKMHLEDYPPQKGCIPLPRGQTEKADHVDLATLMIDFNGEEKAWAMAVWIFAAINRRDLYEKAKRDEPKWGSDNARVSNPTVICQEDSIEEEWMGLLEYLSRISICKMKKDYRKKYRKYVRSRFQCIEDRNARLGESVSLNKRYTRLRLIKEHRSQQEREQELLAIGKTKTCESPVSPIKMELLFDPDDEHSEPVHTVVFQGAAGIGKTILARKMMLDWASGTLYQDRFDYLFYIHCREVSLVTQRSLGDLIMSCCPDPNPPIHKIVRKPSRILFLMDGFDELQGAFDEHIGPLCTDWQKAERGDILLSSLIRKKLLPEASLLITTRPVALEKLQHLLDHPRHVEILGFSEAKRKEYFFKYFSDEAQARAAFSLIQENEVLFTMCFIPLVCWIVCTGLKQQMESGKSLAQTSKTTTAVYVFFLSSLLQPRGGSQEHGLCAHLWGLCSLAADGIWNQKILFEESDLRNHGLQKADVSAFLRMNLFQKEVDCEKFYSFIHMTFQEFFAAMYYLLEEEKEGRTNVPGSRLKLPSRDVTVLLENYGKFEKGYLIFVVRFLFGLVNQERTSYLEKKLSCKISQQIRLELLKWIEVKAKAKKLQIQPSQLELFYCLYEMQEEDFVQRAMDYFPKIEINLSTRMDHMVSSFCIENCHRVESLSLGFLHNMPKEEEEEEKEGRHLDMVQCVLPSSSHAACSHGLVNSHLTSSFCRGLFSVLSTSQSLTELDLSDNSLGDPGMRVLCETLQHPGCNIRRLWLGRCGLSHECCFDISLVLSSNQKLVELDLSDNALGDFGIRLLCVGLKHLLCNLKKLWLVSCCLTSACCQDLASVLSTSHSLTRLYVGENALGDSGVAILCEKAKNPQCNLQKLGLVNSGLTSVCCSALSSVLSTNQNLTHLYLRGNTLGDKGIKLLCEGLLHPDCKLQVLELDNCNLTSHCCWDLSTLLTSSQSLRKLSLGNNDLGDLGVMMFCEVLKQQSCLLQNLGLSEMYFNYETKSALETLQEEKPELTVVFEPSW

| SMILES | IC50 [1] [µM] | IC50 [2] [µM] |
| --- | --- | --- |
| CCc1cc(-c2ccc(C(F)(F)F)cc2)nnc1N[C@@H]1CCCN(C)C1 [compound 30] | 0.1 to 0.5 | > 10 |
| Cc1cc(N[C@@H]2CCCN(C)C2)nnc1-c1ccc(C#N)cc1 [compound 31] | 0.1 to 0.5 | > 10 |
| COc1cc(C(F)(F)F)ccc1-c1cc(C)c(N[C@@H]2CCCN(C)C2)nn1 [compound 35] | 0.5 to 1 | > 10 |
| Cc1cc(-c2ccc(C(F)(F)F)cc2)nnc1N[C@@H]1CCCN(C)C1 [compound 36] | 0.5 to 1 | > 10 |
| Cc1cc(N[C@@H]2CCCN(C)C2)nnc1-c1cccc(C(C)C)c1 [compound 37] | 0.5 to 1 | > 10 |
| Cc1cc(-c2ccc(C(F)(F)F)c(F)c2)nnc1N[C@@H]1CCCN(C)C1 [compound 38] | 0.5 to 1 | > 10 |
| CN1CCC[C@@H](Nc2nnc(-c3ccc(C(F)(F)F)cc3)cc2Cl)C1 [compound 41] | 0.1 to 0.5 | > 10 |
| Cc1cc(-c2cccc(C(F)(F)F)c2)nnc1N[C@@H]1CCCN(C)C1 [compound 47] | > 1 | > 10 |
| Cc1cc(N[C@@H]2CCCN(C)C2)nnc1-c1cccc(C#N)c1 [compound 50] | > 1 | > 10 |
| Cc1cc(-c2cccc(C#N)c2)nnc1N[C@@H]1CCCN(C)C1 [compound 51] | > 1 | > 10 |
| COc1cccc(-c2cc(C)c(N[C@@H]3CCCN(C)C3)nn2)c1 [compound 53] | > 1 | > 10 |
| Cc1cc(N[C@@H]2CCCN(C)C2)nnc1-c1ccccc1 [compound 54] | > 1 | > 10 |
| Cc1cc(-c2cccc(F)c2)nnc1N[C@@H]1CCCN(C)C1 [compound 56] | > 1 | > 10 |
| COc1ccc(-c2cc(C)c(N[C@@H]3CCCN(C)C3)nn2)cc1 [compound 58] | > 1 | > 10 |
| CN1CCC[C@@H](Nc2cc(C#N)c(-c3ccc(C(F)(F)F)cc3)nn2)C1 [compound 59] | 0.05 to 0.1 | > 10 |
| Cc1cc(N[C@@H]2CCCN(CC(F)F)C2)nnc1-c1ccc(C(F)(F)F)cc1 [compound 60] | 0.1 to 0.5 | 5 to 10 |
| CN1CCC[C@@H](Nc2cc(C(F)(F)F)c(-c3ccc(C(F)(F)F)cc3)nn2)C1 [compound 61] | 0.01 to 0.05 | > 10 |
| Cc1cc(N[C@@H]2CCCN(CCF)C2)nnc1-c1ccc(F)cc1 [compound 65] | 0.5 to 1 | > 10 |
| Cc1cc(N[C@@H]2CCCN(CC3CC3)C2)nnc1-c1ccc(C(F)(F)F)cc1 [compound 66] | ≤ 0.01 | > 10 |
| CN1CCC[C@@H](Nc2ccc(-c3ccc(C(F)(F)F)cc3)nn2)C1 [compound 67] | 0.1 to 0.5 | > 10 |
| Cc1cc(N[C@@H]2CCCN(C3CC3)C2)nnc1-c1ccc(C(F)(F)F)cc1 [compound 68] | ≤ 0.01 | > 10 |
| Cc1cc(N[C@H]2CN(C)CC(F)(F)C2)nnc1-c1ccc(C(F)(F)F)cc1 [compound 69] | 0.05 to 0.1 | > 10 |
| Cc1cc(N[C@@H]2CCCN(CC3CC3)C2)nnc1-c1ccc(F)cc1 [compound 70] | ≤ 0.01 | > 10 |
| Cc1cc(-c2ccc(N[C@@H]3CCCN(C)C3)nn2)c(C)cc1F [compound 71] | 0.01 to 0.05 | > 10 |

| SMILES | IC50 [1] [µM] | IC50 [2] [µM] |
| --- | --- | --- |
| Cc1cc(-c2ccc(C(F)(F)F)cc2C#N)nnc1N[C@@H]1CCCN(C)C1 [compound 72] | 0.1 to 0.5 | > 10 |
| Cc1cc(-c2ccc(F)c(Cl)c2)nnc1N[C@@H]1CCCN(C)C1 [compound 73] | 0.1 to 0.5 | > 10 |
| Cc1cc(N[C@H]2CN(C)CC[C@H]2F)nnc1-c1ccc(C(F)(F)F)cc1 [compound 74, N-((3S,4R)-4-fluoro-1-methylpiperidin-3-yl)-5-methyl-6-(4-(trifluoromethyl)-phenyl)pyridazin-3-amine] | > 1 | > 10 |
| Cc1cc(-c2cccc(Cl)c2)nnc1N[C@@H]1CCCN(C)C1 [compound 77] | > 1 | 5 to 10 |
| CCc1cccc(-c2cc(C)c(N[C@@H]3CCCN(C)C3)nn2)c1 [compound 78] | > 1 | > 10 |
| Cc1cc(-c2cccc(C(C)C)c2)nnc1N[C@@H]1CCCN(C)C1 [compound 79] | > 1 | > 10 |
| Cc1cc(-c2ccc(C#N)cc2)nnc1N[C@@H]1CCCN(C)C1 [compound 80] | > 1 | > 10 |
| Cc1cc(-c2ccc(OC(F)(F)F)cc2)nnc1N[C@@H]1CCCN(C)C1 [compound 81] | > 1 | > 10 |
| Cc1ccc(-c2cc(C)c(N[C@@H]3CCCN(C)C3)nn2)cc1 [compound 82] | > 1 | > 10 |
| CN1CCC[C@@H](Nc2ccc(-c3ccccc3)nn2)C1 [compound 84] | > 1 | > 10 |
| Cc1ccccc1-c1ccc(N[C@@H]2CCCN(C)C2)nn1 [compound 85] | > 1 | > 10 |
| Cc1cc(-c2ccc(C(F)(F)F)cc2)nnc1N[C@H]1CN(C)CC[C@H]1F [compound 88] | > 1 | > 10 |
| Cc1cc(-c2ccccc2C#N)nnc1N[C@@H]1CCCN(C)C1 [compound 90] | > 1 | > 10 |
| Cc1ccc(-c2cc(C(F)(F)F)c(N[C@@H]3CCCN(C)C3)nn2)cc1 [compound 91] | > 1 | > 10 |
| Cc1cccc(-c2cc(C)c(N[C@@H]3CCCN(C)C3)nn2)c1 [compound 92] | > 1 | > 10 |
| Cc1cc(N[C@@H]2CCCN(C)C2)nnc1-c1ccc(C2CC2)cc1 [compound 93] | 0.01 to 0.05 | > 10 |
| Cc1cc(-c2ccc(C3CC3)cc2)nnc1N[C@@H]1CCCN(C)C1 [compound 94] | > 1 | > 10 |
| Cc1cc(-c2ccc(C3CCC3)cc2)nnc1N[C@@H]1CCCN(C)C1 [compound 95] | > 1 | 5 to 10 |
| Cc1cc(-c2ccc(F)cc2C#N)nnc1N[C@@H]1CCCN(C)C1 [compound 97] | > 1 | > 10 |
| Cc1cc(-c2ccc(F)cc2F)nnc1N[C@@H]1CCCN(C)C1 [compound 98] | > 1 | > 10 |
| Cc1cc(-c2cc(C)c(N[C@@H]3CCCN(C)C3)nn2)ccc1C(F)(F)F [compound 100] | > 1 | > 10 |
| COc1cc(-c2ccc(C(F)(F)F)cc2)nnc1N[C@@H]1CCCN(C)C1 [compound 102] | > 1 | > 10 |
| CN1CCC[C@@H](Nc2nnc(-c3ccc(C(F)(F)F)cc3)cc2C#N)C1 [compound 103] | > 1 | > 10 |
| Cc1cc(-c2ccc(C(F)(F)F)c(Cl)c2)nnc1N[C@@H]1CCCN(C)C1 [compound 105] | > 1 | > 10 |

Results, then the compound that gave them:

| IC50 [1] [µM] | IC50 [2] [µM] | SMILES |
| --- | --- | --- |
| 0.1 to 0.5 | > 10 | COc1ccc(-c2nnc(N[C@@H]3CCCN(C)C3)cc2C)cc1 [compound 32] |
| 0.1 to 0.5 | > 10 | Cc1cc(N[C@@H]2CCCN(C)C2)nnc1-c1cc(C)c(F)c(C)c1 [compound 33] |
| 0.1 to 0.5 | > 10 | Cc1cc(N[C@@H]2CCCN(C)C2)nnc1-c1ccc(F)c(Cl)c1 [compound 34] |
| 0.5 to 1 | > 10 | Cc1cc(N[C@@H]2CCCN(C)C2)nnc1-c1ccc(C(F)(F)F)c(Cl)c1 [compound 39] |
| 0.05 to 0.1 | 5 to 10 | Cc1cc(N[C@@H]2CCCN(C)C2)nnc1-c1ccc(C(F)(F)F)cc1C#N [compound 40] |
| 0.5 to 1 | 5 to 10 | Cc1cc(C(F)(F)F)cc(C)c1-c1ccc(N[C@@H]2CCCN(C)C2)nn1 [compound 42] |
| > 1 | 5 to 10 | Cc1cc(N[C@@H]2CCCN(C)C2)nnc1-c1cccc(Cl)c1 [compound 43] |
| 0.1 to 0.5 | > 10 | Cc1cccc(-c2nnc(N[C@@H]3CCCN(C)C3)cc2C)c1 [compound 44] |
| > 1 | > 10 | Cc1cc(N[C@@H]2CCCN(C)C2)nnc1-c1cccc(F)c1 [compound 45] |
| > 1 | > 10 | Cc1cc(N[C@@H]2CCCN(C)C2)nnc1-c1cccc(C(F)(F)F)c1 [compound 46] |
| > 1 | > 10 | COc1cccc(-c2nnc(N[C@@H]3CCCN(C)C3)cc2C)c1 [compound 52] |
| > 1 | > 10 | CCc1cccc(-c2nnc(N[C@@H]3CCCN(C)C3)cc2C)c1 [compound 55] |
| 0.01 to 0.05 | > 10 | Cc1cc(-c2nnc(N[C@@H]3CCCN(C)C3)cc2C)ccc1F [compound 62] |
| 0.1 to 0.5 | > 10 | Cc1cc(N[C@@H]2CCCN(C)C2)nnc1-c1ccc(C(F)(F)F)c(C#N)c1 [compound 63] |
| 0.1 to 0.5 | > 10 | Cc1cc(N[C@@H]2CCCN(C)C2)nnc1-c1ccc(F)c(F)c1 [compound 64] |
| > 1 | 5 to 10 | COc1cc(C(F)(F)F)cc(C)c1-c1ccc(N[C@@H]2CCCN(C)C2)nn1 [compound 75] |
| > 1 | 5 to 10 | Cc1cc(N[C@@H]2CCCN(C)C2)nnc1-c1ccc(O)c(C)c1C(F)(F)F [compound 76] |
| > 1 | > 10 | Cc1ccccc1-c1nnc(N[C@@H]2CCCN(C)C2)cc1C [compound 87] |
| > 1 | > 10 | Cc1cc(N[C@@H]2CCCN(C)C2)nnc1-c1ccccc1C#N [compound 89] |
| > 1 | > 10 | Cc1cc(N[C@@H]2CCCN(C)C2)nnc1-c1ccc(F)cc1C#N [compound 96] |
| 0.5 to 1 | > 10 | Cc1cc(-c2nnc(N[C@@H]3CCCN(C)C3)cc2C)ccc1C(F)(F)F [compound 99] |
| > 1 | > 10 | COc1cc(N[C@@H]2CCCN(C)C2)nnc1-c1ccc(C(F)(F)F)cc1 [compound 101] |
| > 1 | > 10 | Cc1cc(N[C@@H]2CCCN(C)C2)nnc1-c1ccc(O)cc1 [compound 104] |
